Assay results reported in patent US20260202414A1, “PROTEIN COMPLEXES FOR PROXIMITY-BASED LABELING OF INTRACELLULAR MICROENVIRONMENTS” (THE TRUSTEES OF PRINCETON UNIVERSITY, priority 2022, published 2026).

Test system: cereblon (CRBN)
Assay: Proximity labeling study with CRBN-bound iridium complex and diazo-biotin (FIG. 3/4)
Assay type: cell-based
Details: transfected cells expressing CRBN with BCNK, tetrazine iridium complex bound to CRBN, diazo-biotin, irradiation; in the presence of CC-885 (without CC-885 only CRBN is enriched)
Description: Alternatively, the transition metal complex can be bonded to a derivatized amino acid or unnatural amino acid of the protein substrate or E3 ligase. Suitable click chemistry moieties of the transition metal complex and/or unnatural amino acid can be selected from the group consisting of DBCO, BCN, TCO, tetrazine, alkyne and azide. FIG. 3 illustrates validation of such a binding strategy with cereblon (CRBN). Transfected cells were employed to express CRBN with BCNK. Iridium complex comprising a tetrazine moiety was introduced to bind the iridium complex to CRBN. CRBN modulator CC-885 was added to bind to CRBN, and diazo-biotin was added as a protein labeling agent. The iridium complex was irradiated to form a reactive intermediate through energy transfer to the diazo-biotin as described further herein. The reactive intermediate binding to biomolecular species within a predetermined radius of the CRBN-Ir. FIG. 4 illustrates the results of the labeling study. […] In the absence of CC-885, only CRBN is enriched.

Question: With Cc1ccc(NC(=O)NCc2ccc3c(c2)CN(C2CCC(=O)NC2=O)C3=O)cc1Cl (stereo not shown) [CC-885] as the compound, how does the “proteins enriched in the labeling study” value read?
Answer: CRBN and GSPT1 are enriched
